Results from US20260345802A1, “ANTIBODY-DRUG CONJUGATES AND LINKERS AND METHODS OF USE THEREOF” (priority 2023, published 2026).
Where a SMILES comes first, the peptide text is derived from it. [ ]: non-standard residue; d: D form. Dolaproine = CO[C@@H]([C@@H]1CCCN1)[C@@H](C)C(=O)O; Dil = CC[C@H](C)[C@H](NC)[C@@H](CC(=O)O)OC; NMeV = CN[C@H](C(=O)O)C(C)C

Tested on: TNBC tumor tissue
Assay: Single-cell RNA sequencing of tumors
Assay type: in vivo, mouse
Settings: scRNA-Seq, payload effect
Protocol: The flash-frozen tissue samples (25 mg) were collected and stored at −80° C. until processing. Chromium Next GEM RNA Profiling Sample Fixation Kit (PN-1000414, 10× Genomics, Pleasanton, CA, USA) was used to fix tissue by mixing 1 mL of fixation buffer with 25 mg of tissue, followed by fine mince and incubation at 4° C. for 16-24 hours without agitation. After fixation, tissue samples were centrifuged, washed with chilled PBS, and resuspended in 1 mL of tissue resuspension buffer. The fixed tissues supplemented with pre-warmed dissociation buffer were dissociated using an Octo Dissociator according to the manufacturer's instructions. […] Cell concentration was determined using an automated cell counter with fluorescent nucleic acid staining. […]
A 10× single-cell library was prepared using the Chromium Fixed RNA Kit (Cat #1000497, 10× Genomics). […] The quality control of cDNA was evaluated using an Agilent Bioanalyzer aiming for the final library molecules with P5 and P7 priming sites used in Illumina sequencers. For each cDNA sample, single-cell library construction was started using the 10× barcoded ligated probe products, and sequenced using the NovaSeq 6000 flow cell 100-cycle kit (Illumina, San Diego, CA, USA) in a Read1:i7:i5:Read2 format of 28:10:10:90 bp at 10× Genomics. […]

For CC[C@H](C)[C@@H]([C@@H](CC(=O)N1CCC[C@H]1[C@H](OC)[C@@H](C)C(=O)N[C@@H](Cc1ccccc1)C(=O)O)OC)N(C)C(=O)[C@@H](NC(=O)[C@@H](NC)C(C)C)C(C)C [MMAF, Monomethylauristatin F] (H-[NMeV]V[Dil][Dolaproine]F-OH), the “tumor cell distribution in mitotic stages” value was “inhibition of cell proliferation”.
